According to PubChem BioAssay AID1159564 (GlaxoSmithKline (GSK), 2015):
Calls of active or inactive are those of the source. No rule for the calls is given here.

Tested on: L. donovani-infected THP-1 macrophages, intracellular amastigote imaging
Assay: antileishmanial activity in infected THP-1 macrophages – imaging, THP-1 host macrophages, host toxicity (AID 1159564)
[1] = measured here: THP-1 host cell toxicity
[2] = measured here: amastigotes per macrophage

Row | Compound | IC50 | IC50 [1] | IC50 [2]
1 | O=c1ccn(-c2ccc([N+](=O)[O-])cc2Cl)c2ccc(F)cc12 | > 50 µM (inactive) | > 50 µM | > 50 µM
2 | CCN(CC)c1ccc(S(=O)(=O)N(CC)CC)c2nonc12 | 0.4 µM | 16 µM | 0.13 µM
3 | Cc1ccc(Nc2nc(-c3ccccn3)cc(N3CCCC(O)C3)n2)cc1 (stereo unspecified) | 0.79 µM | 25 µM | 0.5 µM
4 | CC(C)C[C@H](NC(=O)c1ccc(-c2ccccc2)o1)C(=O)NC1(C#N)CC1 | > 50 µM (inactive) | > 50 µM | 16 µM
5 | CCCc1nc2nc(N)nc(N)c2cc1CC | 40 µM | > 50 µM | 40 µM
6 | Cn1nc([N+](=O)[O-])nc1Oc1ccc(C(=O)c2ccccc2)cc1 | > 50 µM (inactive) | > 50 µM | > 50 µM
7 | COc1ccc(C2CC(c3ccccc3Cl)=NN2C(=O)CNC(=O)C2CCCC2)cc1 (stereo unspecified) | > 50 µM (inactive) | > 50 µM | > 50 µM
8 | Nc1ncnc2c1ncn2[C@@H]1O[C@H](CO)C[C@H]1O | > 50 µM (inactive) | > 50 µM | > 50 µM
9 | O=C(N[C@H](CO)c1ccccc1)c1ccc(-c2c[nH]c3nccc(C(F)(F)F)c23)s1 | 25 µM | 13 µM | 16 µM
10 | O=c1ccc2ccc(F)c3c2n1C[C@H]3CN1CCN(CC(O)c2cc3c(cn2)OCS3)CC1 (stereo partly specified) | > 50 µM (inactive) | > 50 µM | > 50 µM
11 | Cc1nn(-c2nc3ccccc3[nH]2)c2c1C(c1ccc(O)cc1)CC(=O)N2 (stereo unspecified) | 1 µM | 6.3 µM | 0.5 µM
12 | c1ccc2c(CCOc3nccnc3-c3ccncc3)c[nH]c2c1 | > 50 µM (inactive) | 20 µM | 20 µM
13 | O=C(CCc1ccc(-c2ccccc2)o1)N1CCN(c2ccc(O)cc2)CC1 | 4 µM | > 50 µM | 1.3 µM
14 | Cc1cc(NC(=O)C2CCCCC2)n(-c2nc3c(c(=O)[nH]2)CCC3)n1 | 5 µM | 10 µM | 3.2 µM
15 | O=C(c1cccc(Nc2ncc(-c3ccc4c(c3)OCO4)cn2)c1)N1CCOCC1 | 4 µM | 63 µM | 1.6 µM
16 | CC(C)COC(=O)Nc1ccc(N2CCC(CNS(=O)(=O)c3ccccc3)CC2)c(F)c1 | 2 µM | > 50 µM | 1.3 µM
17 | COc1ccc(-c2cnc(C)o2)cc1S(=O)(=O)Nc1ccc(C)cc1C | 3.2 µM | > 50 µM | 2.5 µM
18 | CN(Cc1cc2ccccc2s1)c1ncc2c(N)nc(N)nc2n1 | 32 µM | 25 µM | 25 µM
19 | COc1ccc(Nc2nc(-c3ccccn3)cc(N3CCCC(O)C3)n2)cc1 (stereo unspecified) | 1 µM | 25 µM | 0.79 µM
20 | Cc1cc(NC(=O)CC2CCCCC2)n(-c2nc3c(c(=O)[nH]2)CCC3)n1 | 3.2 µM | 4 µM | 1.6 µM
21 | O=C(Nc1n[nH]c(-c2ccccn2)n1)C1CC1c1ccccc1 (stereo unspecified) | 7.9 µM | 20 µM | 7.9 µM
22 | O=C(CN(c1cccc(C(F)(F)F)c1)S(=O)(=O)c1ccc(Cl)cc1)NCc1ccc(F)c(F)c1 | > 50 µM (inactive) | 20 µM | > 50 µM
23 | COc1ccccc1C=CCN1C[C@H]2CCC[C@@H](C1)C2(O)c1cccnc1 (stereo partly specified) | > 50 µM (inactive) | 40 µM | 32 µM
24 | CCc1ccc2nc(NC(=O)c3cc(N4CCOCC4)ccn3)sc2c1 | 1.3 µM | 10 µM | 0.79 µM
25 | O=C(Nc1ccc(C(=O)N2CCCC2c2ccc3c(c2)OCCCO3)cc1)c1ccco1 (stereo unspecified) | 6.3 µM | > 50 µM | 3.2 µM
26 | Cc1cc(C)nc(N2CCC(N(Cc3cccnc3)C(=O)c3cccc(C#N)c3)CC2)n1 | > 50 µM (inactive) | > 50 µM | > 50 µM
27 | Cc1[nH]nc(-c2nc3ccccc3[nH]2)c1C(=O)NC1CCCNC1 (stereo unspecified) | 6.3 µM | 1.6 µM | 6.3 µM
